Molecular target: T1, WIZ protein (HiBit-WIZ fusion protein) (Homo sapiens, UniProt O95785+Q96SW2)
T1 construct: expressed in transfected cells
Assay: Quantification of WIZ protein levels in HiBit tag fusion protein assay (WIZ HiBit assay in 293T cells)
Assay type: cell-based
Design: remaining activity / Dmax: dose or concentration left out as unconfirmed
Settings: for Dmax at 25 µM / remaining activity at 25 µM / Dmax / remaining activity: HEK-293T; for Dmax at 25 µM: 100 − Amax; for Dmax at 25 µM / remaining activity at 25 µM: 293T cells; for Dmax at 25 µM / Dmax: read-out: % degradation of WIZ (100 − Amax); for remaining activity at 25 µM: DMSO-normalized, curve-fitted percentage of WIZ-HiBit remaining at 25 uM; for remaining activity at 25 µM / remaining activity: read-out: WIZ Amax; for DC50: WIZ HiBit assay in 293T cells, 10-point, 5-fold dose response, highest concentration 25 μM, about 18 hours, read-out: WIZ AC50
How it was run: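 Luminescence after LgBit complementation quantified remaining HiBit-WIZ in lysates of single-copy stable 293T lines. Cells dosed ~18 h at 37 °C with 10-point, 5-fold dilutions (highest 25 μM); DMSO set to 100%, fitted curve gave % remaining at 25 μM (Amax).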

T1 sequence (O95785 whole entry, the tested form may be a part): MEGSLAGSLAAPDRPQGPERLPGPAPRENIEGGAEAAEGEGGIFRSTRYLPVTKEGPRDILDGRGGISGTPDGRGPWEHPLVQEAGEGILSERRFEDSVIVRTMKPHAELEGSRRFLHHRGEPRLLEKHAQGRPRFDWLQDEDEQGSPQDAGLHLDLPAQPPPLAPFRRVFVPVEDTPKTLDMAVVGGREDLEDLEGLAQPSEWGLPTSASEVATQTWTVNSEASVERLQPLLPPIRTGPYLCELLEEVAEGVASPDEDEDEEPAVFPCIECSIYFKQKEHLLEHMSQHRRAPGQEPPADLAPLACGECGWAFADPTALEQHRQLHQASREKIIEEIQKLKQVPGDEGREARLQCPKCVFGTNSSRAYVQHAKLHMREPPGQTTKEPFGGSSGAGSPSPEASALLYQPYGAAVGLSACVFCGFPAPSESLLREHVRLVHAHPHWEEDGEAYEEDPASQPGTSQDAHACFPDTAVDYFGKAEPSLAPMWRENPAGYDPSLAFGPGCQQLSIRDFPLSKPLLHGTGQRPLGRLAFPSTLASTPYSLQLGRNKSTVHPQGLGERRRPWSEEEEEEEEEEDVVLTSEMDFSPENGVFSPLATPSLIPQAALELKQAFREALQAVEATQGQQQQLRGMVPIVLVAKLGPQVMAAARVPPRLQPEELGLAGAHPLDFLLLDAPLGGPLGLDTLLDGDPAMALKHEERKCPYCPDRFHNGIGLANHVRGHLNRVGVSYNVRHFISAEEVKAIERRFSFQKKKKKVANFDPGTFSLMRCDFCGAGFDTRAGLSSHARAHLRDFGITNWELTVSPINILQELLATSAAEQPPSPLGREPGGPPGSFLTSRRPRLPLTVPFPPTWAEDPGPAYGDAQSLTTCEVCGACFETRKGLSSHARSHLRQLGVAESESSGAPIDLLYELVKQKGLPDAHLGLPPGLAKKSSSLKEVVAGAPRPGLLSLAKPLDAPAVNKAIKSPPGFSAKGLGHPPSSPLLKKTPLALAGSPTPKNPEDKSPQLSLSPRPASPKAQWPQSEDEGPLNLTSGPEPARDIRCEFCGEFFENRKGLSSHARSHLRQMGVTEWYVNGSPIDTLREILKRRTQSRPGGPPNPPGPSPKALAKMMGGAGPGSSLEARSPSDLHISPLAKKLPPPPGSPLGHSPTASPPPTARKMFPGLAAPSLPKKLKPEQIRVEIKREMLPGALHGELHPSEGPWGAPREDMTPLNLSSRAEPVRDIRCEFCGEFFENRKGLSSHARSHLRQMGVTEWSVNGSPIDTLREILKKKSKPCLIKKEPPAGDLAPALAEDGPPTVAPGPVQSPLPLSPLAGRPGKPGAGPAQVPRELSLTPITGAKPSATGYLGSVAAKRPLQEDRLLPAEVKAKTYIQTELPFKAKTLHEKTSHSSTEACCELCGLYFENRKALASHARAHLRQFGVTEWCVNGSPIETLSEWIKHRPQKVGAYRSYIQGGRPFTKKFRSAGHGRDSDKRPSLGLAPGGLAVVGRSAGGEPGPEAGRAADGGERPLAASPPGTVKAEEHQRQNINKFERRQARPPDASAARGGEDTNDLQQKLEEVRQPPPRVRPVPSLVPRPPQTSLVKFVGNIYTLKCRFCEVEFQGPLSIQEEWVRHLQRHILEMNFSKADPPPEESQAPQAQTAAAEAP
T1 sequence (Q96SW2 whole entry, the tested form may be a part): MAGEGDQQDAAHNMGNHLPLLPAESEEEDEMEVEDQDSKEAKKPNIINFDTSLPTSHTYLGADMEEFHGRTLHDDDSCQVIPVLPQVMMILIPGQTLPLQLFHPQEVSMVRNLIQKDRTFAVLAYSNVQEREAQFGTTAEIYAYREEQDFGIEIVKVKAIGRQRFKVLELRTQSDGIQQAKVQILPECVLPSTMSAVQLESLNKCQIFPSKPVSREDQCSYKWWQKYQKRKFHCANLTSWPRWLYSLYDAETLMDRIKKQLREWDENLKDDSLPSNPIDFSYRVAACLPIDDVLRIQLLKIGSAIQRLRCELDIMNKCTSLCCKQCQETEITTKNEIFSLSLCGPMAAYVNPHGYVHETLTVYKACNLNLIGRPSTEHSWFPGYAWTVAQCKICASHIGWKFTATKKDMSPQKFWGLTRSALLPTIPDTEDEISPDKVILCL
T1 sequence (Q16531 whole entry partner, the tested form may be a part): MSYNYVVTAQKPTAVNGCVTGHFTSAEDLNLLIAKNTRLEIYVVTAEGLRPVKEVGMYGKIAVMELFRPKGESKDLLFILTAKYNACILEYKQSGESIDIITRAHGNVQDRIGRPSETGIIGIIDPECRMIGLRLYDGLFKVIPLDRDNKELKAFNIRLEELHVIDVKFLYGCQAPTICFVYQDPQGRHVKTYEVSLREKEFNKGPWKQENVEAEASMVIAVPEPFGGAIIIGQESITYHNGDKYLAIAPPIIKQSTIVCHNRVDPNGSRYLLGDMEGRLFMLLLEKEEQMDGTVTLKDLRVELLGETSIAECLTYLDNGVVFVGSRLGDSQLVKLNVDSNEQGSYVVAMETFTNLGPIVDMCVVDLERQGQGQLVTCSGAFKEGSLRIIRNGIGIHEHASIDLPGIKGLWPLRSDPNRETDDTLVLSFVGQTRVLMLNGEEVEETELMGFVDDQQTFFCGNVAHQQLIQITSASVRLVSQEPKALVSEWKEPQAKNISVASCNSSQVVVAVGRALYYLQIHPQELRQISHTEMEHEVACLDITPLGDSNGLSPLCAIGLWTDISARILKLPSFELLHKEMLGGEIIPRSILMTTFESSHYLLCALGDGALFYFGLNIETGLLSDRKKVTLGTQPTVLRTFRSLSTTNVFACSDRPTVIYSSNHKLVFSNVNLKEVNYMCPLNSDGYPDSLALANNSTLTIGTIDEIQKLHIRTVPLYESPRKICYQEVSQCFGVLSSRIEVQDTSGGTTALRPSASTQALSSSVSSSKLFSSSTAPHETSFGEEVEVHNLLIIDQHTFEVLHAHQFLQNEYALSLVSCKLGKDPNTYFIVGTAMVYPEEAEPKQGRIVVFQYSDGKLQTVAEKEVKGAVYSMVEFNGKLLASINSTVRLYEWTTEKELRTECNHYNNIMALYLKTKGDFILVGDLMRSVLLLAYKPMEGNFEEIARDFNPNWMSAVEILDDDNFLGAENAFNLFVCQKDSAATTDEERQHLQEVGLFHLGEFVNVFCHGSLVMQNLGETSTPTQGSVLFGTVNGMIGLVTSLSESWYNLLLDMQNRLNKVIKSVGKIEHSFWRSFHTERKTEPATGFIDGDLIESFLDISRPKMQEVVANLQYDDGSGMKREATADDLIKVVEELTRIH

| Compound | Dmax at 25 µM | remaining activity at 25 µM | DC50 | Dmax | remaining activity |
| --- | --- | --- | --- | --- | --- |
| O=C1CCN(c2cnn3ccc(CC4CCN(CC5COC5)CC4)cc23)C(=O)N1 [Example 119, 1-(5-((1-(oxetan-3-ylmethyl)piperidin-4-yl)methyl)pyrazolo[1,5-a]pyridin-3-yl)dihydropyrimidine-2,4(1H,3H)-dione] | 82% | 18% | 109 nM |  |  |
| CC(C)S(=O)(=O)N1C[C@@H]2C[C@H]1CN2Cc1ccn2ncc(N3CCC(=O)NC3=O)c2c1 [Example 238, 1-(5-(((1S,4S)-5-(isopropylsulfonyl)-2,5-diazabicyclo[2.2.1]heptan-2-yl)methyl)pyrazolo[1,5-a]pyridin-3-yl)dihydropyrimidine-2,4(1H,3H)-dione] | 19% | 81% | 754 nM |  |  |
| CC1(C)CN(Cc2ccn3ncc(N4CCC(=O)NC4=O)c3c2)CCN1CC1CCCCC1 [Example 231, 1-(5-((4-(cyclohexylmethyl)-3,3-dimethylpiperazin-1-yl)methyl)pyrazolo[1,5-a]pyridin-3-yl)dihydropyrimidine-2,4(1H,3H)-dione] | 53% | 47% | 150 nM |  |  |
| C[C@H]1C[C@H](Cc2ccn3ncc(N4CCC(=O)NC4=O)c3c2)CCN1CCC1CCOCC1 [Example 148] | 86% | 14% | 63 nM |  |  |
| Cc1cn(-c2cnn3ccc(CN4CCN(CC(C)C)[C@@H](C)C4)cc23)c(=O)[nH]c1=O [Example 359, (S)-1-(5-((4-isobutyl-3-methylpiperazin-1-yl)methyl)pyrazolo[1,5-a]pyridin-3-yl)-5-methylpyrimidine-2,4(1H,3H)-dione] | 89% | 11% | 365 nM |  |  |
| C[C@H]1CN(Cc2ccn3ncc(N4CCC(=O)NC4=O)c3c2)CCN1C[C@H]1CC[C@H](O)CC1 [Example 201, 1-(5-(((S)-4-(((1r,4S)-4-hydroxycyclohexyl)methyl)-3-methylpiperazin-1-yl)methyl)pyrazolo[1,5-a]pyridin-3-yl)dihydropyrimidine-2,4(1H,3H)-dione] | 88% | 12% | 20 nM |  |  |
| C[C@H]1C[C@H](Cc2ccn3ncc(N4CCC(=O)NC4=O)c3c2)CCN1C(=O)C1CCN(C)CC1 [Example 290] | 54% | 46% | 1700 nM |  |  |
| COC(C)(C)CN1CCC(Cc2ccn3ncc(N4CCC(=O)NC4=O)c3c2)CC1 [Example 105, 1-(5-((1-(2-methoxy-2-methylpropyl)piperidin-4-yl)methyl)pyrazolo[1,5-a]pyridin-3-yl)dihydropyrimidine-2,4(1H,3H)-dione] |  |  | 2160 nM | 64% | 36% |
| CC(C)S(=O)(=O)N1CCC(Cc2ccn3ncc(N4CCC(=O)NC4=O)c3c2)CC1 [Example 85] | 83% | 17% | 38 nM |  |  |
| CC(C)CN1CC[C@H](Cc2ccn3ncc(N4CCC(=O)NC4=O)c3c2)C[C@@H]1C(F)(F)F (relative stereo) [Example 312, (cis)-1-(5-((1-isobutyl-2-(trifluoromethyl)piperidin-4-yl)methyl)pyrazolo[1,5-a]pyridin-3-yl)dihydropyrimidine-2,4(1H,3H)-dione] | 44% | 56% | 370 nM |  |  |
| O=C1CCN(c2cnn3ccc(CN4CCN(Cc5ccccc5)CC4)cc23)C(=O)N1 [Example 165] | 69% | 31% | 198 nM |  |  |
| O=C1CCN(c2cnn3ccc(CC4CCN(C(=O)CCC5CCCCC5)CC4)cc23)C(=O)N1 [Example 103] | 28% | 72% | 82 nM |  |  |
| CC(C)CN1[C@H](C)CN(Cc2ccn3ncc(N4CCC(=O)NC4=O)c3c2)C[C@@H]1C [Example 257, 1-(5-(((3S,5R)-4-isobutyl-3,5-dimethylpiperazin-1-yl)methyl)pyrazolo[1,5-a]pyridin-3-yl)dihydropyrimidine-2,4(1H,3H)-dione] | 74% | 26% | 101 nM |  |  |
| CC(c1cccnc1)N1CCN(Cc2ccn3ncc(N4CCC(=O)NC4=O)c3c2)CC1 (stereo not drawn) [Example 175] | 40% | 60% | 1240 nM |  |  |
| O=C1CCN(c2cnn3ccc(CC4CCN(CC5CCCO5)CC4)cc23)C(=O)N1 (stereo not drawn) [Example 15, 1-(5-((1-((tetrahydrofuran-2-yl)methyl)piperidin-4-yl)methyl)pyrazolo[1,5-a]pyridin-3-yl)dihydropyrimidine-2,4(1H,3H)-dione] | 71% | 29% | 523 nM |  |  |
| CC(C)CN1CC[C@H](Cc2ccn3ncc(N4CCC(=O)NC4=O)c3c2)C[C@@H]1C [Example 72] | 87% | 13% | 6 nM |  |  |

| Compound | Dmax at 25 µM | remaining activity at 25 µM | DC50 | Dmax | remaining activity |
| --- | --- | --- | --- | --- | --- |
| O=C1CCN(c2cnn3ccc(CC4CCN(Cc5ccc(F)cc5)CC4)cc23)C(=O)N1 [Example 23, 1-(5-((1-(4-fluorobenzyl)piperidin-4-yl)methyl)pyrazolo[1,5-a]pyridin-3-yl)dihydropyrimidine-2,4(1H,3H)-dione] | 77% | 23% | 144 nM |  |  |
| O=C1CCN(c2cnn3ccc(CC4CCN(S(=O)(=O)c5ccccc5)CC4)cc23)C(=O)N1 [Example 91] | 74% | 26% | 150 nM |  |  |
| O=C1CCN(c2cnn3ccc(CN4CCN5C(=O)COC[C@H]5C4)cc23)C(=O)N1 [Example 314, (R)-1-(5-((4-oxohexahydropyrazino[2,1-c][1,4]oxazin-8(1H)-yl)methyl)pyrazolo[1,5-a]pyridin-3-yl)dihydropyrimidine-2,4(1H,3H)-dione] | 34% | 66% | 2560 nM |  |  |
| CC(C)CN1CCN(Cc2ccn3ncc(N4CCC(=O)NC4=O)c3c2)[C@H](C)C1 [Example 220] | 66% | 34% | 133 nM |  |  |
| O=C1CCN(c2cnn3ccc(CC4CCN(Cc5ccccn5)CC4)cc23)C(=O)N1 [Example 111] | 56% | 44% | 304 nM |  |  |
| C[C@H]1CN(Cc2ccn3ncc(N4CCC(=O)NC4=O)c3c2)CCN1CC1CC2(C1)CC(F)(F)C2 [Example 326, (S)-1-(5-((4-((6,6-difluorospiro[3.3]heptan-2-yl)methyl)-3-methylpiperazin-1-yl)methyl)pyrazolo[1,5-a]pyridin-3-yl)dihydropyrimidine-2,4(1H,3H)-dione] | 87% | 13% | 49 nM |  |  |
| O=C1CCN(c2cnn3ccc(CN4CCN(Cc5ccc(F)cc5)CC4)cc23)C(=O)N1 [Example 168] | 56% | 44% | 127 nM |  |  |
| O=C1CCN(c2cnn3ccc(CC4CNC4)cc23)C(=O)N1 [Example 133, 1-(5-(azetidin-3-ylmethyl)pyrazolo[1,5-a]pyridin-3-yl)dihydropyrimidine-2,4(1H,3H)-dione] | 21% | 79% | 4800 nM |  |  |
| Cc1cccc(CN2CCN(Cc3ccn4ncc(N5CCC(=O)NC5=O)c4c3)CC2)c1 [Example 190, 1-(5-((4-(3-methylbenzyl)piperazin-1-yl)methyl)pyrazolo[1,5-a]pyridin-3-yl)dihydropyrimidine-2,4(1H,3H)-dione] | 54% | 46% | 86 nM |  |  |
| CC(C)CCN1CCC(Cc2ccn3ncc(N4CCC(=O)NC4=O)c3c2)CC1 [Example 19, 1-(5-((1-isopentylpiperidin-4-yl)methyl)pyrazolo[1,5-a]pyridin-3-yl)dihydropyrimidine-2,4(1H,3H)-dione] | 81% | 19% | 20 nM |  |  |
| O=C1CCN(c2cnn3ccc(CN4CCN(CC5CCCC5)CC4)cc23)C(=O)N1 [Example 159] | 81% | 19% | 23 nM |  |  |
| O=C1CCN(c2cnn3ccc(CC4CCN(CC5CCC5)C4)cc23)C(=O)N1 (stereo not drawn) [Example 130] | 36% | 64% | 1320 nM |  |  |
| O=C1CCN(c2cnn3ccc(CC4CCN(S(=O)(=O)C5CCCCC5)CC4)cc23)C(=O)N1 [Example 81] | 92% | 8% | 15 nM |  |  |
| O=C1CCN(c2cnn3ccc(CN4C[C@H]5CC[C@@H](C4)N5Cc4cccnc4)cc23)C(=O)N1 [Example 253, 1-(5-(((1R,5S)-8-(pyridin-3-ylmethyl)-3,8-diazabicyclo[3.2.1]octan-3-yl)methyl)pyrazolo[1,5-a]pyridin-3-yl)dihydropyrimidine-2,4(1H,3H)-dione] | 23% | 77% | 531 nM |  |  |
| O=C1CCN(c2cnn3ccc(CN4CCN5CCOC[C@H]5C4)cc23)C(=O)N1 [Example 263, (R)-1-(5-((hexahydropyrazino[2,1-c][1,4]oxazin-8(1H)-yl)methyl)pyrazolo[1,5-a]pyridin-3-yl)dihydropyrimidine-2,4(1H,3H)-dione] | 55% | 45% | 880 nM |  |  |
| COCC(F)(F)CN1CC[C@@H](Cc2ccn3ncc(N4CCC(=O)NC4=O)c3c2)C[C@@H]1C [Example 278, 1-(5-(((2S,4R)-1-(2,2-difluoro-3-methoxypropyl)-2-methylpiperidin-4-yl)methyl)pyrazolo[1,5-a]pyridin-3-yl)dihydropyrimidine-2,4(1H,3H)-dione] |  |  | 66 nM | 72% | 28% |
